Data taken from the NIST ThermoML archive (doi:10.1021/je5007218).
± gives the expanded uncertainty stated by the source.

experiment: refractive index (Na D-line) (dimensionless); conditions: 293.15 K; 101.33 kPa; Liquid; Standard Abbe refractometry

Going from `O` [water] to `CC#N` [acetonitrile], the refractive index rises from 1.33299 ± 0.00035 to 1.34386 ± 0.00035.

First: CC(C)CO [2-methyl-1-propanol]
Second: CCCCO [butan-1-ol]
The refractive index of the first is lower: 1.39563 ± 0.0004 for the first, 1.39928 ± 0.0004 for the second.
